In US20220274938A1, “5-[(1S)-1-(4-BROMOPHENOXY)ETHYL]-2H-TETRAZOLE DERIVATIVES AND RELATED COMPOUNDS AS CLC-1 ION CHANNEL INHIBITORS FOR TREATING NEUROMUSCULAR DISORDERS” (NMD PHARMA A/S, priority 2019, published 2022):

Experiments:
[1] = biological target: T1, human CIC-1 channels (Homo sapiens, UniProt P35523); assay: Automated patch-clamp on the human isoform of CIC-1 expressed in CHO cells; format: cell-based; details: compound added to the intracellular solution vs control cell patches, positive shift reflects inhibition
T1 construct: host or cells: CHO (Chinese hamster ovary) cells, cryopreserved, used directly after thawing
Experimental: The investigatory goal of these experiments was to evaluate how compounds affect the open probability and current amplitude of human CIC-1 channels expressed in CHO cells. Experiments were performed using an automated patch clamp system that allowed high throughput testing of whole cell patches together with both intracellular and extracellular addition of compound.
Automated whole cell patch clamp experiments were performed with the Qpatch 16 system (Sophion Bioscience, Ballerup, Denmark) at room temperature. Data acquisition and analysis were performed in the Qassay software (ver. 5.6, Odense).
To obtain tail currents, the membrane potential was stepped to −100 mV after each test voltage for 300 ms and then relaxed to −30 mV for 2 sec between sweeps (FIG. 3). I/V relationships for whole cell instant and steady state current amplitudes were obtained by plotting average current densities at the beginning and at the end of the 300 ms step against the membrane potential (FIG. 4).
In order to determine the relative overall open probability (Po), the instantaneous tail currents were normalized to the maximal tail current obtained following the most positive voltage step and plotted against the test voltage. Plots of normalized tail currents from each whole cell patch were then fitted to a Boltzmann function allowing determination of half activation voltages (V1/2, FIG. 5).
Osmolality adjusted to ˜320 using sucrose. Intracellular solutions contained: 80 mM CsF, 60 mM CsCl, 5/1 mM KOH/EGTA, 10 mM HEPES, 10 mM NaCl, pH adjusted to 7.2 with NaOH (2 M). Osmolality adjusted to ˜320 mOsm using sucrose.
Cells used in patch clamp experiments were Chinese hamster ovary cells (CHO) constitutively expressing human CIC-1 channels. The amino acid sequence encoded by the cDNA used to create this cell line was identical to the translated sequence for GenBank accession number NM_000083.2. Cells were produced by Charles River (Catalogue CT6175, Cleveland Ohio, USA) in a cryopreserved format. Experiments were performed on the cells directly after thawing (3×10^6 cells used in each experiment).
To evaluate the compound effect on CIC-1, when applied directly to the intracellular side of the cell membrane, the half activation voltage, V1/2, was determined from whole cell patches with compound added to the intracellular solution and then compared to V1/2 determined from control cell patches with only vehicle added to the intracellular solution. Additionally, the effect of extracellular added compound was evaluated by determine V1/2 and steady state current amplitudes before and after exchanging the extracellular solution to contain compound.
The difference in half activation voltage of CIC-1 channels, ΔV1/2, was determined as the difference between the cell patches treated intracellularly with compound and control cells patches and is reported in Table 4 below. A positive shift in ΔV1/2 is reflecting CIC-1 channel inhibition by the tested compound. P-values of <0.05 is considered significant.

[2] = system: isolated rat soleus muscles; assay: Measurement of force in an in vitro model: isolated rat soleus nerve-muscle preparation with tubocurarine; format: cell-based; details: Rattus norvegicus, 40 min; 50 μM test compound, after 40 mins of compound exposure; 115 nM tubocurarine for 90 mins; read-out: Point increase (%) of initial force that was restored
[3] = system: female Lewis rats; assay: In situ muscle contractile characteristics (isometric hindlimb force) under Cisatracurium infusion; format: in vivo, rat; details: 21.6 mg/kg i.v.; 80 Hz stimulation; neuromuscular transmission partially inhibited by Cisatracurium
Experimental: Isometric hindlimb force was measured in 12-week old female Lewis rats in the presence and absence of compound.
Rats were placed under anesthesia with isoflurane (2-4%), intubated and subsequently connected to a micro ventilator (Microvent 1, Hallowell EMC, US). Two stimulation electrodes were inserted through the skin to stimulate the sciatic nerve. A small incision was made proximal to the ankle, to expose the Achilles tendon, which was tied by cotton string, and connected to a force transducer (Fort250, World Precision Instruments) with adjustable position (Vernier control). The Achilles tendon was then cut distal to the attached cotton string. […]
Muscle contractile properties were assessed by applying an electrical current (under supramaximal voltage conditions) to the nerve and recording the force generated by the muscle. The muscle was stretched until maximal force was obtained, when assessed by 2 Hz stimulation. Isometric force was measured every 30 seconds at 12 Hz (Twitch), 10 pulses, and at every 5 minutes at 80 Hz (Tetanic) for 1 second (80 pulses). […] The effect of test article was assessed on its ability to increase force generated from the stimulation pattern applied. The effect was assessed in the ability to increase force per se (tetanic, 80 Hz, stimulation), and the ratio between individual twitch peaks (12 Hz stimulation). […]

T1 sequence (P35523 whole entry, canonical isoform): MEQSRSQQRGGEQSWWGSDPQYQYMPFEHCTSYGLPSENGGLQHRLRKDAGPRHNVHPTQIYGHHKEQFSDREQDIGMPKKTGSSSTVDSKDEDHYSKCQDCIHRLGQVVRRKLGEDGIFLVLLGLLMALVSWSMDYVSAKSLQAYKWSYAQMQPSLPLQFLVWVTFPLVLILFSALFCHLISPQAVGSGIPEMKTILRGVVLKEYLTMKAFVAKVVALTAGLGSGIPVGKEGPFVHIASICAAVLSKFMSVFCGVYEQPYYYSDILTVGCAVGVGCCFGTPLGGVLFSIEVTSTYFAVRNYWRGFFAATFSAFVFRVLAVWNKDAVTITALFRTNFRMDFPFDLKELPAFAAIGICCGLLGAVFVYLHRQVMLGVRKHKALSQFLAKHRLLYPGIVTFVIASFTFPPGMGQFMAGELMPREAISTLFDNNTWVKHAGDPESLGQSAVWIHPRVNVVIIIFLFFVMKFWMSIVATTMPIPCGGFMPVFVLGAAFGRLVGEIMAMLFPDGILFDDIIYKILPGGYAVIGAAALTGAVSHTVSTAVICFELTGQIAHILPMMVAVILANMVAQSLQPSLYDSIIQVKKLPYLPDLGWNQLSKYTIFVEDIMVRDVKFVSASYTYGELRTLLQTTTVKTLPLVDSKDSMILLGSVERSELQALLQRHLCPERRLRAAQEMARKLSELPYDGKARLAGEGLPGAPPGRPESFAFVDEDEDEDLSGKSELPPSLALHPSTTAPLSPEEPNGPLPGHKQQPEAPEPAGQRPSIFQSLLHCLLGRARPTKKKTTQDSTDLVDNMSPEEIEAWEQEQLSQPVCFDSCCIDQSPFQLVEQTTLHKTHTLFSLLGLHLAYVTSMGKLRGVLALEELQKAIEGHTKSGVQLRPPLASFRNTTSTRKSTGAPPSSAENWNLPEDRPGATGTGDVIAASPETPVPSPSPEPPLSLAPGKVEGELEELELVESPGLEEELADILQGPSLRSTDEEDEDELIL

Row | SMILES | ΔV1/2 (difference in half activation voltage of CIC-1 channels) [1] [mV] | activation at 50 µM [2] [%] | increase in tetanic force [3] [%]
1 | C[C@H](Oc1ccc(Cl)cc1)C(=O)NOC1CCC1 [Compound C-80, (2S)-2-(4-chlorophenoxy)-N-cyclobutoxypropanamide] | 9.9 | 47 | –
2 | C[C@H](Oc1ccc(Br)cc1F)c1nn[nH]n1 [Compound E-8, 5-[(1S)-1-(4-bromo-2-fluorophenoxy)ethyl]-2H-1,2,3,4-tetrazole] | 38.4 | 34 | 11
